# Reference: patent US12077503B2, “Substituted cyclic amides and their use as herbicides” (FMC CORPORATION, priority 2015, dated 2024)
# Legend:
# Type in all cases: in vivo
# corn (Zea mays) [1] = experiment: Test G Post-Emergence Protocol; conditions: Zea mays, post-emergence, 312 h, read-out: Corn damage rating; for plant injury at 15.625 g/ha: 15.625 g ai/ha, evaluated after 13 days (100=total damage to plant; 0=no damage to plant); for plant injury at 62.5 g/ha: 62.5 g ai/ha; for plant injury at 62.5 g/ha / plant injury at 250 g/ha: evaluated after 13 days, 100=total damage to plant, 0=no damage to plant; for plant injury at 250 g/ha: 250 g ai/ha
# Outline: (§1)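 Scores run 0 (no damage) to 100 (total damage) and were taken 13 days after spraying. Plants had been raised in pots for 8 days under glasshouse control (24/16 °C, 14 h photoperiod, 65% humidity) and then treated at 15.625, 62.5 or 250 g/ha.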
# [2] = test system: ivy-leaved morning glory (Ipomoea hederacea); experiment: Test G Post-Emergence Protocol; conditions: Ipomoea, post-emergence, 312 h, read-out: Morningglory, Ivy-leaved damage rating; for pest or weed control at 15.625 g/ha: 15.625 g ai/ha, evaluated after 13 days (100=total damage to plant; 0=no damage to plant); for pest or weed control at 62.5 g/ha: 62.5 g ai/ha; for pest or weed control at 62.5 g/ha / pest or weed control at 250 g/ha: evaluated after 13 days, 100=total damage to plant, 0=no damage to plant; for pest or weed control at 250 g/ha: 250 g ai/ha
# Outline: as §1
# [3] = test system: redroot pigweed (Amaranthus retroflexus); experiment: Test G Post-Emergence Protocol; conditions: Amaranthus retroflexus, post-emergence, 312 h, read-out: Pigweed, Redroot damage rating; for pest or weed control at 15.625 g/ha: 15.625 g ai/ha, evaluated after 13 days (100=total damage to plant; 0=no damage to plant); for pest or weed control at 62.5 g/ha: 62.5 g ai/ha; for pest or weed control at 62.5 g/ha / pest or weed control at 250 g/ha: evaluated after 13 days, 100=total damage to plant, 0=no damage to plant; for pest or weed control at 250 g/ha: 250 g ai/ha
# Outline: as §1
# [4] = test system: velvetleaf (Abutilon theophrasti); experiment: Test G Post-Emergence Protocol; conditions: Abutilon theophrasti, post-emergence, 312 h, read-out: Velvetleaf damage rating; for pest or weed control at 15.625 g/ha: 15.625 g ai/ha, evaluated after 13 days (100=total damage to plant; 0=no damage to plant); for pest or weed control at 62.5 g/ha: 62.5 g ai/ha; for pest or weed control at 62.5 g/ha / pest or weed control at 250 g/ha: evaluated after 13 days, 100=total damage to plant, 0=no damage to plant; for pest or weed control at 250 g/ha: 250 g ai/ha
# Outline: as §1
# [5] = test system: giant foxtail (Setaria faberi); experiment: Test G Post-Emergence Protocol; conditions: Setaria faberi, post-emergence, 312 h, read-out: Foxtail, Giant damage rating; for pest or weed control at 15.625 g/ha: 15.625 g ai/ha, evaluated after 13 days (100=total damage to plant; 0=no damage to plant); for pest or weed control at 62.5 g/ha: 62.5 g ai/ha; for pest or weed control at 62.5 g/ha / pest or weed control at 250 g/ha: evaluated after 13 days, 100=total damage to plant, 0=no damage to plant; for pest or weed control at 250 g/ha: 250 g ai/ha
# Outline: as §1
# [6] = test system: barnyardgrass (Echinochloa crus-galli); experiment: Test G Post-Emergence Protocol; conditions: Echinochloa crus-galli, post-emergence, 312 h, read-out: Barnyardgrass damage rating; for pest or weed control at 15.625 g/ha: 15.625 g ai/ha, evaluated after 13 days (100=total damage to plant; 0=no damage to plant); for pest or weed control at 62.5 g/ha: 62.5 g ai/ha; for pest or weed control at 62.5 g/ha / pest or weed control at 250 g/ha: evaluated after 13 days, 100=total damage to plant, 0=no damage to plant; for pest or weed control at 250 g/ha: 250 g ai/ha
# Outline: as §1
# corn (Zea mays) [7] = experiment: Test G Pre-Emergence Protocol; conditions: Zea mays, pre-emergence, 312 h, evaluated after 13 days; for plant injury at 15.625 g/ha: 15.625 g ai/ha; for plant injury at 15.625 g/ha / plant injury at 250 g/ha: read-out: Corn damage rating (100=total damage to plant; 0=no damage to plant); for plant injury at 62.5 g/ha: 62.5 g ai/ha, 100=total damage to plant, 0=no damage to plant, read-out: Corn damage rating; for plant injury at 250 g/ha: 250 g ai/ha
# Outline: (§2)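 Scores are visual damage ratings from 0 (no damage) to 100 (total plant kill), taken 13 days after treatment. Compound was sprayed one day post-sowing at 15.625, 62.5 or 250 g/ha in 50:50 acetone/water with 0.5% Tween 20.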
# [8] = test system: ivy-leaved morning glory (Ipomoea hederacea); experiment: Test G Pre-Emergence Protocol; conditions: Ipomoea, pre-emergence, 312 h, evaluated after 13 days; for pest or weed control at 15.625 g/ha: 15.625 g ai/ha; for pest or weed control at 15.625 g/ha / pest or weed control at 250 g/ha: read-out: Morningglory, Ivy-leaved damage rating (100=total damage to plant; 0=no damage to plant); for pest or weed control at 62.5 g/ha: 62.5 g ai/ha, 100=total damage to plant, 0=no damage to plant, read-out: Morningglory, Ivy-leaved damage rating; for pest or weed control at 250 g/ha: 250 g ai/ha
# Outline: as §2
# [9] = test system: redroot pigweed (Amaranthus retroflexus); experiment: Test G Pre-Emergence Protocol; conditions: Amaranthus retroflexus, pre-emergence, 312 h, evaluated after 13 days; for pest or weed control at 15.625 g/ha: 15.625 g ai/ha; for pest or weed control at 15.625 g/ha / pest or weed control at 250 g/ha: read-out: Pigweed, Redroot damage rating (100=total damage to plant; 0=no damage to plant); for pest or weed control at 62.5 g/ha: 62.5 g ai/ha, 100=total damage to plant, 0=no damage to plant, read-out: Pigweed, Redroot damage rating; for pest or weed control at 250 g/ha: 250 g ai/ha
# Outline: as §2
# [10] = test system: velvetleaf (Abutilon theophrasti); experiment: Test G Pre-Emergence Protocol; conditions: Abutilon theophrasti, pre-emergence, 312 h, evaluated after 13 days; for pest or weed control at 15.625 g/ha: 15.625 g ai/ha; for pest or weed control at 15.625 g/ha / pest or weed control at 250 g/ha: read-out: Velvetleaf damage rating (100=total damage to plant; 0=no damage to plant); for pest or weed control at 62.5 g/ha: 62.5 g ai/ha, 100=total damage to plant, 0=no damage to plant, read-out: Velvetleaf damage rating; for pest or weed control at 250 g/ha: 250 g ai/ha
# Outline: as §2
# [11] = test system: giant foxtail (Setaria faberi); experiment: Test G Pre-Emergence Protocol; conditions: Setaria faberi, pre-emergence, 312 h, evaluated after 13 days; for pest or weed control at 15.625 g/ha: 15.625 g ai/ha; for pest or weed control at 15.625 g/ha / pest or weed control at 250 g/ha: read-out: Foxtail, Giant damage rating (100=total damage to plant; 0=no damage to plant); for pest or weed control at 62.5 g/ha: 62.5 g ai/ha, 100=total damage to plant, 0=no damage to plant, read-out: Foxtail, Giant damage rating; for pest or weed control at 250 g/ha: 250 g ai/ha
# Outline: as §2
# [12] = test system: barnyardgrass (Echinochloa crus-galli); experiment: Test G Pre-Emergence Protocol; conditions: Echinochloa crus-galli, pre-emergence, 312 h, evaluated after 13 days; for pest or weed control at 15.625 g/ha: 15.625 g ai/ha; for pest or weed control at 15.625 g/ha / pest or weed control at 250 g/ha: read-out: Barnyardgrass damage rating (100=total damage to plant; 0=no damage to plant); for pest or weed control at 62.5 g/ha: 62.5 g ai/ha, 100=total damage to plant, 0=no damage to plant, read-out: Barnyardgrass damage rating; for pest or weed control at 250 g/ha: 250 g ai/ha
# Outline: as §2
Compound,plant injury at 15.625 g/ha (corn (Zea mays) [1]) [%],plant injury at 62.5 g/ha (corn (Zea mays) [1]) [%],plant injury at 250 g/ha (corn (Zea mays) [1]) [%],pest or weed control at 15.625 g/ha [2] [%],pest or weed control at 62.5 g/ha [2] [%],pest or weed control at 250 g/ha [2] [%],pest or weed control at 15.625 g/ha [3] [%],pest or weed control at 62.5 g/ha [3] [%],pest or weed control at 250 g/ha [3] [%],pest or weed control at 15.625 g/ha [4] [%],pest or weed control at 62.5 g/ha [4] [%],pest or weed control at 250 g/ha [4] [%],pest or weed control at 15.625 g/ha [5] [%],pest or weed control at 62.5 g/ha [5] [%],pest or weed control at 15.625 g/ha [6] [%],pest or weed control at 62.5 g/ha [6] [%],pest or weed control at 250 g/ha [6] [%],plant injury at 15.625 g/ha (corn (Zea mays) [7]) [%],plant injury at 62.5 g/ha (corn (Zea mays) [7]) [%],plant injury at 250 g/ha (corn (Zea mays) [7]) [%],further results
CN1C[C@H](c2ccnc(C(C)(C)C)n2)[C@@H](C(=O)Nc2cccc(F)c2F)C1=O (racemic) [Compound 1769],0,0,10,0,0,20,0,0,0,0,0,0,0,10,0,0,50,0,0,0,pest or weed control at 250 g/ha [5]: 60%; pest or weed control at 15.625 g/ha [8]: 0%; pest or weed control at 62.5 g/ha [8]: 0%; pest or weed control at 250 g/ha [8]: 0%; pest or weed control at 15.625 g/ha [9]: 0%; pest or weed control at 62.5 g/ha [9]: 0%; pest or weed control at 250 g/ha [9]: 0%; pest or weed control at 15.625 g/ha [10]: 0%; pest or weed control at 62.5 g/ha [10]: 0%; pest or weed control at 250 g/ha [10]: 0%; pest or weed control at 15.625 g/ha [11]: 20%; pest or weed control at 62.5 g/ha [11]: 40%; pest or weed control at 250 g/ha [11]: 90%; pest or weed control at 15.625 g/ha [12]: 0%; pest or weed control at 62.5 g/ha [12]: 20%; pest or weed control at 250 g/ha [12]: 70%
CN1C[C@H](c2ccnc(C(C)(C)C)n2)[C@@H](C(=O)Nc2ccc(F)c(F)c2F)C1=O (racemic) [Compound 1770],0,0,0,0,10,20,0,20,40,0,10,30,0,20,0,0,70,0,0,0,pest or weed control at 250 g/ha [5]: 70%; pest or weed control at 15.625 g/ha [8]: 0%; pest or weed control at 62.5 g/ha [8]: 0%; pest or weed control at 250 g/ha [8]: 30%; pest or weed control at 15.625 g/ha [9]: 0%; pest or weed control at 62.5 g/ha [9]: 0%; pest or weed control at 250 g/ha [9]: 10%; pest or weed control at 15.625 g/ha [10]: 0%; pest or weed control at 62.5 g/ha [10]: 0%; pest or weed control at 250 g/ha [10]: 20%; pest or weed control at 15.625 g/ha [11]: 0%; pest or weed control at 62.5 g/ha [11]: 50%; pest or weed control at 250 g/ha [11]: 80%; pest or weed control at 15.625 g/ha [12]: 0%; pest or weed control at 62.5 g/ha [12]: 20%; pest or weed control at 250 g/ha [12]: 70%
CSc1ncccc1NC(=O)[C@H]1C(=O)N(C)C[C@@H]1c1ccc(C(F)(F)F)cc1 (racemic) [Compound 1786],0,0,0,0,0,0,0,0,20,0,0,30,0,10,0,0,0,0,0,0,pest or weed control at 15.625 g/ha [8]: 0%; pest or weed control at 62.5 g/ha [8]: 0%; pest or weed control at 250 g/ha [8]: 0%; pest or weed control at 15.625 g/ha [9]: 0%; pest or weed control at 62.5 g/ha [9]: 0%; pest or weed control at 250 g/ha [9]: 40%; pest or weed control at 15.625 g/ha [10]: 0%; pest or weed control at 62.5 g/ha [10]: 0%; pest or weed control at 250 g/ha [10]: 30%; pest or weed control at 15.625 g/ha [11]: 0%; pest or weed control at 62.5 g/ha [11]: 0%; pest or weed control at 250 g/ha [11]: 80%; pest or weed control at 15.625 g/ha [12]: 0%; pest or weed control at 62.5 g/ha [12]: 0%; pest or weed control at 250 g/ha [12]: 20%
